According to ChEMBL document CHEMBL1140913, “Discovery and structure-activity relationships of trisubstituted pyrimidines/pyridines as novel calcium-sensing receptor antagonists” (J Med Chem, 2009):
In brackets after ≈: the same amount, converted by molar mass.

How the values were obtained:
[1] = biological target: T1, Extracellular calcium-sensing receptor (Homo sapiens, UniProt P41180); assay: Antagonist activity at calcium-sensing receptor expressed in HEK293 cells by FLIPR assay; assay type: functional, cell-based
T1 sequence (P41180 whole entry): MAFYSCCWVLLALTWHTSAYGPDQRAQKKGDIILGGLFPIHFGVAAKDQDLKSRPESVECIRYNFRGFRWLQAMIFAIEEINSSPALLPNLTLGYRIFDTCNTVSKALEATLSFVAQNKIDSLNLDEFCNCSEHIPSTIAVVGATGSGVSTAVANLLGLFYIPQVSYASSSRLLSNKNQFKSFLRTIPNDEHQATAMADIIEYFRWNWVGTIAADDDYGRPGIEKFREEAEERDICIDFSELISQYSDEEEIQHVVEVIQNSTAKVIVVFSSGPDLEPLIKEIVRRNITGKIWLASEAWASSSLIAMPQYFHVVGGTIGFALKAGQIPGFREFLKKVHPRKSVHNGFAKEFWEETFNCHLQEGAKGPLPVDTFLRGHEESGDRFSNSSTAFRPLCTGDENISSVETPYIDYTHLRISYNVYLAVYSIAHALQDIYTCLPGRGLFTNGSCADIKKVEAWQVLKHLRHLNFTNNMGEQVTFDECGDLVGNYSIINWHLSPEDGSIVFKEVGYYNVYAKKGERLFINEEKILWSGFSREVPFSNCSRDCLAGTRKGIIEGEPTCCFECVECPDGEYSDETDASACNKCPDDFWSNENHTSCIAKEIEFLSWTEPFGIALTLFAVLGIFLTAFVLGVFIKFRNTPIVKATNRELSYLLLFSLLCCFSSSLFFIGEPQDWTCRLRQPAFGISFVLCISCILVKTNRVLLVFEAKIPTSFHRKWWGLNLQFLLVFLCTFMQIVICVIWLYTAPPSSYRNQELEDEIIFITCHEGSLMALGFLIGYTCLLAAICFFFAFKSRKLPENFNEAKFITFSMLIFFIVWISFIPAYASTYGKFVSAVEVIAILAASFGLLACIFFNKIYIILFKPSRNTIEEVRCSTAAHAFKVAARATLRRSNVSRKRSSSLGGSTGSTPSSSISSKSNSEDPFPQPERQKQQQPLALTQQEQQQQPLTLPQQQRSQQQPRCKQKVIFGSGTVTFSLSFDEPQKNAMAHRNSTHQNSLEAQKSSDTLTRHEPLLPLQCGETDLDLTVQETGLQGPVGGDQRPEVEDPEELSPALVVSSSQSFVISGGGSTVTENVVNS

[2] = Aqueous solubility at pH 6.5; assay type: physicochemical
[3] = Aqueous solubility at pH 4.5; assay type: physicochemical

Compound	IC50 [1] [nM]	solubility [2] [µg/mL]	solubility [3] [µg/mL]
COc1cc(-c2nc(NCc3ccccc3C)ncc2C(=O)NCCOc2ccccc2)cc(OC)c1OC	10000	–	–
COc1cc(-c2nc(NCc3ccccc3Cl)ncc2C(=O)NCCOc2ccccc2)cc(OC)c1OC	4900	–	–
COc1cc(-c2nc(NCc3ccccc3)ncc2C(=O)NCCOc2ccccc2)cc(OC)c1OC	730	–	–
COc1cc(-c2nc(NCCC(C)C)ncc2C(=O)NCCOc2ccccc2)cc(OC)c1OC	2200	–	–
CCN(Cc1ccccc1)c1ccc(C(=O)NCCOc2ccccc2)c(-c2ccc(OC)nc2OC)n1	1050	–	–
COc1cc(OC)cc(-c2nc(N(C)Cc3ccccc3)ncc2C(=O)NCCOc2ccccc2)c1	> 30000	–	–
CCN(Cc1ccccc1)c1ncc(C(=O)NCCOc2ccccc2)c(-c2ccc(OC)nc2OC)n1	360	–	–
CCN(Cc1ccccc1)c1ncc(C(=O)NCCCc2ccccc2)c(-c2cc(OC)c(OC)c(OC)c2)n1	2100	–	–
CCN(Cc1ccccc1)c1ncc(C(=O)NCCc2ccccc2)c(-c2cc(OC)c(OC)c(OC)c2)n1	> 30000	–	–
COc1cc(-c2nc(N[C@@H](CO)Cc3ccccc3)ncc2C(=O)NCCOc2ccccc2)cc(OC)c1OC	> 30000	–	–
CN(Cc1ccccc1)c1ncc(C(=O)NCCOc2ccccc2)c(-c2ccc(C(F)(F)F)cc2)n1	18900	–	–
COc1ccc(-c2nc(N(C)Cc3ccccc3)ncc2C(=O)NCCOc2ccccc2)cc1	> 30000	–	–
COc1cccc(-c2nc(N(C)Cc3ccccc3)ncc2C(=O)NCCOc2ccccc2)c1	> 30000	–	–
COc1ccccc1-c1nc(N(C)Cc2ccccc2)ncc1C(=O)NCCOc1ccccc1	> 30000	–	–
CCN(Cc1ccccc1)c1ncc(C(=O)NCCOc2ccccc2)c(C2CCCCC2)n1	> 30000	–	–
CCN(Cc1ccccc1)c1ncc(C(=O)NCCOc2ccccc2)c(-c2ccccc2)n1	> 30000	–	–
COc1ccc(-c2nc(N(C)Cc3ccccc3)ncc2C(=O)NCCOc2ccccc2)cc1OC	6900	–	–
COc1cc(-c2nc(NCc3ccccn3)ncc2C(=O)NCCOc2ccccc2)cc(OC)c1OC	> 30000	–	–
COc1cc(-c2nc(NCCc3cccnc3)ncc2C(=O)NCCOc2ccccc2)cc(OC)c1OC	> 30000	–	–
COc1cc(-c2nc(NCCc3ccccn3)ncc2C(=O)NCCOc2ccccc2)cc(OC)c1OC	> 30000	–	–
COc1cccc(CCNc2ncc(C(=O)NCCOc3ccccc3)c(-c3cc(OC)c(OC)c(OC)c3)n2)c1	1000	–	–
COc1cc(-c2nc(N(C)CCc3ccccc3)ncc2C(=O)NCCOc2ccccc2)cc(OC)c1OC	1500	–	–
COc1cc(-c2nc(NCCc3ccccc3)ncc2C(=O)NCCOc2ccccc2)cc(OC)c1OC	400	–	–
COc1cc(-c2nc(N[C@H](CO)Cc3ccccc3)ncc2C(=O)NCCOc2ccccc2)cc(OC)c1OC	150	–	–
COc1cc(-c2nc(N(C)Cc3ccccc3)ncc2C(=O)NCCOc2ccccc2)cc(OC)c1OC	470	–	–
CCN(Cc1ccccc1)c1ncc(C(=O)NCCCCc2ccccc2)c(-c2cc(OC)c(OC)c(OC)c2)n1	1800	–	–
COc1cc(-c2nc(NCc3cccnc3)ncc2C(=O)NCCOc2ccccc2)cc(OC)c1OC	> 30000	–	–
COc1ccc(CNc2ncc(C(=O)NCCOc3ccccc3)c(-c3cc(OC)c(OC)c(OC)c3)n2)cc1	3100	–	–
COc1ccc(CCNc2ncc(C(=O)NCCOc3ccccc3)c(-c3cc(OC)c(OC)c(OC)c3)n2)cc1	2800	–	–

Further compounds by falling IC50 [1], results first:

IC50 [1] [nM]	solubility [2] [µg/mL]	solubility [3] [µg/mL]	Compound
360	–	–	COc1ccc(-c2nc(NCc3ccc4c(c3)OCO4)ncc2C(=O)N2CCc3ccccc3C2)c(OC)n1
340	–	–	COc1cccc(CNc2ncc(C(=O)NCCOc3ccccc3)c(-c3cc(OC)c(OC)c(OC)c3)n2)c1
340	–	–	COc1ccccc1CCNc1ncc(C(=O)NCCOc2ccccc2)c(-c2cc(OC)c(OC)c(OC)c2)n1
220	–	–	COc1ccc(-c2nc(NCc3ccc4c(c3)OCO4)ncc2C(=O)NCCOc2ccccc2)c(OC)n1
200	< 1	< 1	CCN(Cc1ccccc1)c1ncc(C(=O)NCCOc2ccccc2)c(-c2cc(OC)c(OC)c(OC)c2)n1
197	–	–	COc1ccc(-c2nc(NCc3cccc(Cl)c3)ccc2C(=O)NCCOc2ccccc2)c(OC)n1
162	–	–	COc1cc(-c2nc(NCc3cccc(Cl)c3)ccc2C(=O)NCCOc2ccccc2)cc(OC)c1OC
154	–	–	CCN(Cc1ccccc1)c1ccc(C(=O)NCCOc2ccccc2)c(-c2cc(OC)c(OC)c(OC)c2)n1
150	–	–	COc1ccc(-c2nc(NCc3ccc4c(c3)OCO4)ncc2C(=O)NC(C)Cc2ccc(Cl)cc2)c(OC)n1 (stereo not drawn)
150	–	–	COc1cc(-c2nc(NCc3ccc4c(c3)OCO4)ncc2C(=O)NCCOc2ccccc2)cc(OC)c1OC
140	11 (≈ 20.8 µM)	36 (≈ 68.1 µM)	COc1ccc(-c2nc(N[C@H](CO)Cc3ccccc3)ccc2C(=O)NCCOc2ccccc2)c(OC)n1
130	–	–	COc1cc(-c2nc(NCc3ccc4c(c3)OCO4)ccc2C(=O)NCCOc2ccccc2)cc(OC)c1OC
76	–	–	COc1cc(-c2nc(N[C@H](CO)Cc3ccccc3)ccc2C(=O)NCCOc2ccccc2)cc(OC)c1OC
70	–	–	COc1cc(-c2nc(NCc3cccc(Cl)c3)ncc2C(=O)NCCOc2ccccc2)cc(OC)c1OC
60	–	–	COc1ccc(-c2nc(NCc3ccc4c(c3)OCO4)ccc2C(=O)NCCOc2ccccc2)c(OC)n1
